# In article PMC4501059, “Responding to the challenge of untreatable gonorrhea: ETX0914, a first-in-class agent with a distinct mechanism-of-action against bacterial Type II topoisomerases” (Scientific Reports, 2015):
# Read-outs that look alike come from different tables or passages of the source.
# Assays:
# [1] = physchem
# [2] = hepatocyte intrinsic clearance; settings: human, hepatocytes
# [3] = Quantitative whole-body autoradiography, tissue distribution of radioactivity; type: in vivo, male pigmented Lister Hood rat; settings: rat plasma after iv infusion of 14C label
# Procedure: Quantitative whole-body autoradiography. The distribution of radioactivity in male, pigmented Lister Hood rat tissues was obtained after a single intravenous infusion over 15 minutes of ^14C-AZD0914 at 25 mg/kg (51 μmol/kg, 5 MBq/kg) using quantitative whole-body autoradiography with phosphor-imaging technology. The potential of this compound and/or its metabolites to bind to melanin-containing tissues and/or to potentially bind covalently to tissues was also evaluated. The rats were sacrificed at 5 minutes, 1 hour, 4 hours, 24 hours, 48 hours, 7 days and 21 days after the end of infusion with enflurane (Efrane®, Abbott Laboratories, USA), and frozen in acetone, cooled to -70 °C with solid CO2. The 7- and 21- day animals could not be quantified as no trace of radioactivity was observed. After removal of limbs and tail, the carcass was embedded, with left lateral side uppermost, in a 2.5% (w/v) aqueous solution of caramellosum natricum and frozen for at least 10 minutes. The animal blocks were stored at -20 °C until sectioning. Sagittal whole-body sections (30 μm) were obtained to include organs and tissues of interest. At sectioning each block was mounted in a Leica CM3600 Cryomacrotome (Leica Microsystems GmbH, Germany) maintained at approximately -20 °C. All sections were dried at -20 °C for at least 1 day prior to exposure on phosphor-imaging plates. Together with two sets of calibration standards, the sections were placed on phosphor-imaging plates, which had been pre-covered with a thin plastic film. The imaging plates were exposed for 1 to 3 days at +4 to +12 °C, enclosed in light tight cassettes in a lead shielding box to protect from environmental radiation. Following exposure, the imaging plates were scanned at a pixel size of 50 μm using FLA-7000 (FujiFilm Sverige AB, Sweden). The tissues and organs of interest were quantified using AIDA 3.5 (Raytest, Germany). The quantification limit was defined as twice the background value of the imaging plate and varied between the plates from 0.23 to 0.33 nmol/g. The various tissues and organs were identified either on the autoradiograms or on the corresponding tissue sections.
# [4] = system: S. pneumoniae ARC2205 (ERQR); assay: MIC (CLSI broth microdilution); type: cell-based
# [5] = system: mammalian myeloid cell lines; assay: myeloid cytotoxicity (growth inhibition); type: cell-based; settings: read-out: Myeloid IC50
# Procedure: In vitro toxicology. Experiments for assessing micronuclei in mouse lymphoma cells^19 myeloid cytotoxicity^20 and erythroid cytotoxicity^21 were performed as described previously.
# [6] = system: Mycoplasma genitalium; parameters: method as in ref 3 (supplement); settings: 11 tested; ref 3 (supplement); cited from earlier work
# [7] = system: MRSA ATCC33591; assay: MIC (modal, CLSI broth microdilution); type: cell-based, S. aureus; settings: Staphylococcus aureus, read-out: Modal MIC
# [8] = system: resistant isolates of S. aureus, S. pneumoniae and N. gonorrhoeae; type: cell-based
# [9] = system: Moraxella catarrhalis; parameters: method as in ref 2 (supplement); settings: 145 tested; ref 2 (supplement); cited from earlier work
# [10] = plasma protein binding, dog; type: in vitro ADME; settings: in vitro at 1-50 µM
# From the text: Supplement srep11827-s1.doc, table 4 | column: Beagle dog (male)
# [11] = system: N. gonorrhoeae ARC4676 (QR); type: cell-based
# [12] = molecular target: S. aureus Topo IV (Staphylococcus aureus, UniProt P0C1S7+P0C1U9); assay: S. aureus Topo IV cleaved complex ligation assay; type: biochemical; settings: free Mg2+ 0.06 μM to 8 mM
# [13] = system: USA100 NRS382; assay: MIC (modal, CLSI broth microdilution); type: cell-based, S. aureus; settings: Staphylococcus aureus, read-out: Modal MIC
# [14] = system: S. aureus AP607004 (MRQR); assay: MIC (CLSI broth microdilution); type: cell-based
# [15] = system: Streptococcus pneumoniae; parameters: method as in ref 2 (supplement); settings: 2324 tested; ref 2 (supplement); cited from earlier work
# [16] = system: Mycoplasma pneumoniae; parameters: method as in ref 3 (supplement); settings: 21 tested; ref 3 (supplement); cited from earlier work
# [17] = system: Staphylococcus aureus; settings: cited from earlier work
# [18] = Single dose pharmacokinetics, monkey; type: in vivo; settings: plasma, Cynomologus monkey (male)
# Procedure: AZD0914 was analyzed in mouse, rat, dog, monkey plasma using a qualified method which was later validated for human plasma analysis. The validated human method is described below and is representative of the approach taken in other species. AZD0914 was determined in human plasma prepared with K2EDTA as an anticoagulant. AZD0914 and an internal standard (^13C2, ^15N2 AZD0914) were extracted from plasma with tert- butyl methyl ether. After evaporating to dryness under a stream of nitrogen, the residue was reconstituted and quantitated by reverse phase HPLC-MS/MS against a standard curve from 1.00 to 5000 ng/ml. Separation was achieved using a gradient which went from 55% to 85% methanol:acetonitrile (1:1) containing 0.2% formic acid as mobile phase B and 0.2% formic acid in water as mobile phase A at a flow rate of 0.60 ml/min through a Phenomonex Gemini C18 column (50 x 2.0 mm column, […]) heated using a Shimadzu CTO-20AC set to 40 °C. AZD0914 was detected in multiple reaction monitoring (MRM) mode by positive ion electrospray ionization using a Sciex API5500 (Toronto, Canada) mass spectrometer. The ion spray voltage was set to 5500 V and turboionspray temperature was 650 °C. AZD0914 was quantitated using the MRM transition 488.2 → 348.2 using a collision energy of 29 eV. The internal standard, (^13C2, ^15N2 AZD0914), was monitored using identical conditions except for the MRM transition of 492.2 → 348.2.
# [19] = 11640 tested, ref 2 (supplement)
structure (smiles),measurement,setting,value
C[C@@H]1CN2c3c(cc4c(N5C(=O)OC[C@@H]5C)noc4c3F)CC3(C(=O)NC(=O)NC3=O)[C@H]2[C@H](C)O1 [ETX0914],solubility,[1],390 µM
same,hepatocyte CLint,[2],1 µL/min/1e6 cells
same,share of circulating radioactivity in plasma accounted for by parent,[3],~ 90%
same,MIC: S. pneumoniae ARC2205 (ERQR),[4],0.125 µg/mL
same,IC50,[5],> 100 µM
same,MIC90,[6],1.0^3 µg/ml
same,MIC Range,[6],0.5 to 1.0 µg/mL
same,MIC,[7],0.125 µg/mL
same,susceptibility of GyrB\ParE mutants with reduced novobiocin susceptibility,"[8]; S. aureus ARC3445, S. pneumoniae ARC2800",fully susceptible
same,cross-resistance of NBTI resistant S. aureus mutant ARC2796,[8]; derived from ARC516,not cross-resistant
same,MIC90,[9],0.25^2 µg/ml
same,MIC Range,[9],0.015 to 0.5 µg/mL
same,PPB (%free),[10],18.4±0.3 %free
same,MIC: N. gonorrhoeae ARC4676 (QR),[11],0.125 µg/mL
same,re-ligation of inhibitor-induced cleaved DNA on removal of Mg2+,[12],No ligation is observed
same,MIC,[13],0.125 µg/mL
same,MIC: S. aureus AP607004 (MRQR),[14],0.5 µg/mL
same,MIC90,[15],0.25^2 µg/ml
same,MIC Range,[15],≤ 0.015 to 0.5 µg/mL
same,MIC90,[16],1.0^3 µg/ml
same,MIC Range,[16],0.5 to 1.0 µg/mL
same,MIC90,[17]; [19],0.25^2 µg/ml
same,MIC Range,[17]; [19],≤ 0.008 to 0.5 µg/mL
same,"MIC90, skin infection (S. aureus)",[17]; Table 2,0.25 µg/mL
same,clearance,"[18]; IV 2.5 mg/kg, read-out: Clp (IV)",12 mL/min/kg
same,half-life,"[18]; IV 2.5 mg/kg, read-out: T1/2 (IV) (converted)",1.6 h
same,Vd,"[18]; IV 2.5 mg/kg, read-out: Vss (IV)",1.3 L/kg
same,bioavailability,[18]; IV 2.5 / PO 5 mg/kg,58%
same,Cmax,[18]; PO 5 mg/kg,6.5 µM
same,half-life,"[18]; PO 5 mg/kg, read-out: T1/2 (PO) (converted)",1.6 h
